Measurements as given in ChEMBL document CHEMBL6096703 (J Med Chem, 2025).
The source made the active and inactive calls. The calls are words filed in the database; no cut-off is given here.

Key:
[1] = Tmax in male Balb/c mouse at 1 mg/kg, po measured upto 96 hrs by LC-MS/MS analysis; format: ADME, organism-based; details: in vivo
[2] = target: Poly [ADP-ribose] polymerase 1 (Homo sapiens, UniProt P09874); assay: Inhibition of PARP1 (unknown origin) at 1 nM preincubated with compound for 10 mins followed by DNA and NAD+ addition and measured after 60 mins by chemiluminescence based envision reader analysis relative to control; details: time 70.0 min
Chain of Poly [ADP-ribose] polymerase 1 (P09874 whole entry): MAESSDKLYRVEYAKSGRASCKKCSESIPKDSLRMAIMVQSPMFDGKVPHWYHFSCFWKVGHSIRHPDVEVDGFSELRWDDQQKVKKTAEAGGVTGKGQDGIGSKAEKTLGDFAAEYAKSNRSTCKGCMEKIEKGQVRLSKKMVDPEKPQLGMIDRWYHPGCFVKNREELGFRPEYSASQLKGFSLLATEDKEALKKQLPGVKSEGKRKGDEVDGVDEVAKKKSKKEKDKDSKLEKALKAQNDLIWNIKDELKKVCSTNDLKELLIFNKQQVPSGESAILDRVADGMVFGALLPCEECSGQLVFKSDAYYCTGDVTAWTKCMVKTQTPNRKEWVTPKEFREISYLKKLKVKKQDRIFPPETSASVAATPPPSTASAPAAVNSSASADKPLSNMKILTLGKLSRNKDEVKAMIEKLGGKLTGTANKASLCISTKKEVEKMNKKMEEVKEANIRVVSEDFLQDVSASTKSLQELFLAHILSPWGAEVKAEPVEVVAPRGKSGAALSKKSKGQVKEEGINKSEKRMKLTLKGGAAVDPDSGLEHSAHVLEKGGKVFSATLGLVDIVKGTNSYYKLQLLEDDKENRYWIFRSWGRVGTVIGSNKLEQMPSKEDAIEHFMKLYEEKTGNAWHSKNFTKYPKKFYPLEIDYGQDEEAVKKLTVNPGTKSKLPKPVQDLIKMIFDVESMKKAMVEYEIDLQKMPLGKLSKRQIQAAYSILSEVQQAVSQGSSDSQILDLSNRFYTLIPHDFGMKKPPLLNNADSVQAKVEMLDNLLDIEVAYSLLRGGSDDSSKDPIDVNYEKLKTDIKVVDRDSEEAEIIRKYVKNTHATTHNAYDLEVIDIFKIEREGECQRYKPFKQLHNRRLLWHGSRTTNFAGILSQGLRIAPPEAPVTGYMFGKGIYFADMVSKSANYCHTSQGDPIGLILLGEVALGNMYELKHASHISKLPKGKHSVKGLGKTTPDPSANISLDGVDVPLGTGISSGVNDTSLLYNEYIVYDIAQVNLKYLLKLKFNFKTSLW

[3] = target: T1, Poly [ADP-ribose] polymerase 2 (Homo sapiens, UniProt Q9UGN5); assay: Inhibition of PARP2 (unknown origin) at 1 uM preincubated with compound for 10 mins followed by DNA and NAD+ addition and measured after 60 mins by chemiluminescence based envision reader analysis relative to control; details: time 70.0 min
T1 sequence (Q9UGN5 whole entry): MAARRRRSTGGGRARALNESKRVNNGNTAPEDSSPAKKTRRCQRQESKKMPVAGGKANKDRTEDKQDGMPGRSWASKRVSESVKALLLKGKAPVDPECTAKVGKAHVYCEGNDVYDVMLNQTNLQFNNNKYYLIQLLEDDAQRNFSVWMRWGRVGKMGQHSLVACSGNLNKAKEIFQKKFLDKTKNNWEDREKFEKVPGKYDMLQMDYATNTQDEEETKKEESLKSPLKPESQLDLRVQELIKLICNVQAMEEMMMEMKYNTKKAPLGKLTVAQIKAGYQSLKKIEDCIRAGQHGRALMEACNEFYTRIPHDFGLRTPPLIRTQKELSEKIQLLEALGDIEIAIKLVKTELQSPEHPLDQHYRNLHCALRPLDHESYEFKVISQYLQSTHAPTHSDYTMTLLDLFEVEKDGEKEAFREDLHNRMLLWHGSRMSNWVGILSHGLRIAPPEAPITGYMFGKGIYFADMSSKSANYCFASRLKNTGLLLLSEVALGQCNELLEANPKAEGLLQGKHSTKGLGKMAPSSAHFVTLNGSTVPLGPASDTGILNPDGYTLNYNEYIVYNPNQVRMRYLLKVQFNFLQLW

[4] = Half life in male Balb/c mouse at 1 mg/kg, po measured upto 96 hrs by LC-MS/MS analysis; format: ADME, organism-based; details: in vivo, po, 1 mg/kg, 96 h
[5] = Clearance in male Balb/c mouse at 1 mg/kg, po measured upto 96 hrs by LC-MS/MS analysis; format: ADME, organism-based; details: in vivo, po, 1 mg/kg, 96 h
[6] = AUC(0 to t) in male Balb/c mouse at 1 mg/kg, po measured upto 96 hrs by LC-MS/MS analysis; format: ADME, organism-based; details: in vivo, po, 1 mg/kg, 96 h
[7] = Cmax in male Balb/c mouse at 1 mg/kg, iv measured upto 96 hrs by LC-MS/MS analysis; format: ADME, organism-based; details: in vivo
[8] = Tmax in male Balb/c mouse at 1 mg/kg, iv measured upto 96 hrs by LC-MS/MS analysis; format: ADME, organism-based; details: in vivo
[9] = AUC(0 to t) in male Balb/c mouse at 1 mg/kg, iv measured upto 96 hrs by LC-MS/MS analysis; format: ADME, organism-based; details: in vivo, iv, 1 mg/kg, 96 h
[10] = Tmax in rat at 2.5 mg/kg, po measured upto 96 hrs by LC-MS/MS analysis; format: ADME, organism-based; details: in vivo
[11] = Apparent volume of distribution in rat at 2.5 mg/kg, iv measured upto 96 hrs by LC-MS/MS analysis; format: ADME, organism-based; details: in vivo, read-out: Vz
[12] = AUC(0 to t) in rat at 2.5 mg/kg, iv measured upto 96 hrs by LC-MS/MS analysis; format: ADME, organism-based; details: in vivo
[13] = target: T1, Poly [ADP-ribose] polymerase 2; assay: Inhibition of PARP2 in PARP1 knockout human A549 cells preincubated with compound for 1 hr followed by H2O2 addition and measured after 5 mins by selective targeting PARylation inhibition assay; format: cell-based
DLD-1 = assay: Inhibition of colony formation in wild type human DLD-1 cells assessed as reduction in survival rate at 2.5 to 20 uM incubated for 10 days by crystal violet staining based assay; format: functional, cell-based; details: dose 2.5-20 µM, time 10.0 day
MDA-MB-436 [14] = assay: Induction of cell cycle arrest in human MDA-MB-436 cells assessed as accumulation of cells at S phase at 1 nM incubated for 3 days by PI staining based flow cytometric analysis (Rvb =18.94%); format: functional; details: time 3 day
MDA-MB-436 [15] = assay: Induction of apoptosis in human MDA-MB-436 cells assessed as early apoptotic cells at 1 nM incubated for 3 days by Annexin V/ PI staining based flow cytometry (reference value: 12.8%); format: functional; details: time 3 day
MDA-MB-436 [16] = assay: Induction of apoptosis in human MDA-MB-436 cells assessed as late apoptotic cells at 1 nM incubated for 3 days by Annexin V/ PI staining based flow cytometry (reference value: 6.57%); format: functional; details: time 3 day
MDA-MB-436 [17] = assay: Induction of apoptosis in human MDA-MB-436 cells assessed as early apoptotic cells at 10 nM incubated for 3 days by Annexin V/ PI staining based flow cytometry (reference value: 12.8%); format: functional; details: time 3 day
MDA-MB-436 [18] = assay: Induction of apoptosis in human MDA-MB-436 cells assessed as late apoptotic cells at 10 nM incubated for 3 days by Annexin V/ PI staining based flow cytometry (reference value: 6.57%); format: functional; details: time 3 day
MDA-MB-436 [19] = assay: Induction of cell cycle arrest in human MDA-MB-436 cells assessed as accumulation of cells at S phase at 10 nM incubated for 3 days by PI staining based flow cytometric analysis (Rvb =18.94%); format: functional; details: time 3 day
MDA-MB-436 [20] = assay: Induction of cell cycle arrest in human MDA-MB-436 cells assessed as accumulation of cells at S phase at 100 nM incubated for 3 days by PI staining based flow cytometric analysis (Rvb =18.94%); format: functional; details: time 3 day
MDA-MB-436 [21] = assay: Induction of cell cycle arrest in human MDA-MB-436 cells assessed as accumulation of cells at G2/M phase at 1 nM incubated for 3 days by PI staining based flow cytometric analysis (Rvb =24.88%); format: functional; details: time 3 day
MDA-MB-436 [22] = assay: Induction of cell cycle arrest in human MDA-MB-436 cells assessed as accumulation of cells at G2/M phase at 100 nM incubated for 3 days by PI staining based flow cytometric analysis (Rvb =24.88%); format: functional; details: time 3 day
[23] = Toxicity in female NOD/SCID mouse xenografted with human MDA-MB-436 cells assessed as change in body weight at 0.3 to 3 mg/kg, po administered once every other day for 28 days and measured every 2 days; format: organism-based; details: in vivo, 672 h, dose 0.3-3 mg/kg, time 28 day
[24] = Toxicity in female NOD/SCID mouse xenografted with human MDA-MB-436 cells assessed as histological changes in liver at 3 mg/kg, po administered once every other day for 28 days by H and E staining based analysis; format: organism-based; details: in vivo, 672 h, time 28 day
[25] = Toxicity in female NOD/SCID mouse xenografted with human MDA-MB-436 cells assessed as histological changes in spleen at 3 mg/kg, po administered once every other day for 28 days by H and E staining based analysis; format: organism-based; details: in vivo, 672 h, time 28 day
[26] = Toxicity in female NOD/SCID mouse xenografted with human MDA-MB-436 cells assessed as histological changes in lung at 3 mg/kg, po administered once every other day for 28 days by H and E staining based analysis; format: organism-based; details: in vivo, 672 h, time 28 day
[27] = Acute toxicity in Kunming mouse assessed as change in body weight at 100 to 300 mg/kg administered orally via gavage for 14 days; format: organism-based; details: in vivo, po, 336 h, dose 100-300 mg/kg, time 14 day
[28] = Acute toxicity in Kunming mouse assessed as mortality at 100 to 300 mg/kg administered orally via gavage for 14 days; format: organism-based; details: in vivo, po, 336 h, dose 100-300 mg/kg, time 14 day
[29] = Acute toxicity in Kunming mouse assessed as change in cellular morphology of heart at 100 mg/kg administered once every other day via gavage for 14 days by H and E staining based analysis; format: organism-based; details: in vivo, po, 336 h, time 14 day
[30] = Acute toxicity in Kunming mouse assessed as change in liver structure at 300 mg/kg administered via gavage for 14 days by H and E staining based analysis; format: organism-based; details: in vivo, po, 336 h, time 14 day
[31] = Sub-acute toxicity in Kunming mouse assessed as change CK level at 100 to 300 mg/kg administered via gavage for 14 days; format: organism-based; details: in vivo, po, 336 h, dose 100-300 mg/kg, time 14 day
[32] = Sub-acute toxicity in Kunming mouse assessed as change LDH2 level at 100 to 300 mg/kg administered via gavage for 14 days; format: organism-based; details: in vivo, po, 336 h, dose 100-300 mg/kg, time 14 day
[33] = Sub-acute toxicity in Kunming mouse assessed as change ASTL level at 30 to 100 mg/kg administered via gavage once every other day for 14 days; format: organism-based; details: in vivo, po, 336 h, dose 30-100 mg/kg, time 14 day

Q: Which Tmax [1] does the source give for `CCc1cc2ncc(CN3CC=C(c4ccc(C#N)cn4)CC3)cc2[nH]c1=O` here?
A: Its Tmax is 8.33 h.

Q: What about the inhibition [2] of the same compound?
A: Its inhibition is 93.6%.

Q: And the inhibition [3]?
A: Its inhibition is 72.9%.

Q: And the t1/2 [4]?
A: The t1/2 was 76.07 h.

Q: What about the CL [5] of the same compound?
A: The CL was 0.17 mL/min/kg.

Q: And the AUCt [6]?
A: The AUCt was 787.38372 µg·h/mL.

Q: What about the Cmax [7] of the same compound?
A: Its Cmax is 10700 ng/mL.

Q: And the Tmax [8]?
A: Its Tmax is 4.8 min.

Q: What about the AUCt [9] of the same compound?
A: The AUCt was 897.43221 µg·h/mL.

Q: And the Tmax [10]?
A: The Tmax was 8 h.

Q: And the Vd [11]?
A: Its Vd is 0.21 L/kg.

Q: What about the AUC(0-t) at 96 h [12] of the same compound?
A: The AUC(0-t) at 96 h was 510 µg·h/mL.

Q: And the IC50 [13]?
A: Its IC50 is 5.19 µM.

Q: What about the inhibition (DLD-1) of the same compound?
A: The inhibition was “inactive”.

Q: And the Activity (MDA-MB-436 [14])?
A: The Activity was 14.99%.

Q: And the Activity (MDA-MB-436 [15])?
A: The Activity was 17%.

Q: What about the Activity (MDA-MB-436 [16]) of the same compound?
A: The Activity was 8.18%.

Q: What about the Activity (MDA-MB-436 [17]) of the same compound?
A: Its Activity is 20.3%.

Q: And the Activity (MDA-MB-436 [18])?
A: The Activity was 9.94%.

Q: And the Activity (MDA-MB-436 [19])?
A: Its Activity is 10.18%.

Q: And the Activity (MDA-MB-436 [20])?
A: Its Activity is 9.37%.

Q: And the Activity (MDA-MB-436 [21])?
A: Its Activity is 28.04%.

Q: And the Activity (MDA-MB-436 [22])?
A: Its Activity is 37.31%.

Q: And the Activity [23]?
A: Its Activity is “Non-toxic”.

Q: What about the Activity [24] of the same compound?
A: Its Activity is “Non-toxic”.

Q: What about the Activity [25] of the same compound?
A: The Activity was “Non-toxic”.

Q: And the Activity [26]?
A: Its Activity is “Non-toxic”.

Q: What about the Activity [27] of the same compound?
A: The Activity was “Non-toxic”.

Q: And the Activity [28]?
A: Its Activity is “Non-toxic”.

Q: And the Activity [29]?
A: Its Activity is “Non-toxic”.

Q: What about the Activity [30] of the same compound?
A: Its Activity is “Non-toxic”.

Q: What about the Activity [31] of the same compound?
A: Its Activity is “Non-toxic”.

Q: What about the Activity [32] of the same compound?
A: Its Activity is “Non-toxic”.

Q: What about the Activity [33] of the same compound?
A: Its Activity is “Non-toxic”.
